In patent US8664219B2, “Aminopyrimidines useful as inhibitors of protein kinases” (Vertex Pharmaceuticals Incorporated, priority 2007, dated 2014):

Columns and labels:
GSK-3β (AA 1-420) = GSK-3β (AA 1-420) (Homo sapiens (Human), UniProt P49841); assay: GSK-3 inhibition assay (standard coupled enzyme system); assay type: biochemical; conditions: 20 μM ATP, 300 μM peptide, 20 nM GSK-3β, 30° C.
Experimental: Compounds of the present invention were screened for their ability to inhibit GSK-3β (AA 1-420) activity using a standard coupled enzyme system (Fox et al., Protein Sci. 1998, 7, 2249). Reactions were carried out in a solution containing 100 mM HEPES (pH 7.5), 10 mM MgCl2, 25 mM NaCl, 300 μM NADH, 1 mM DTT and 1.5% DMSO. Final substrate concentrations in the assay were 20 μM ATP (Sigma Chemicals, St Louis, Mo.) and 300 μM peptide (American Peptide, Sunnyvale, Calif.). Reactions were carried out at 30° C. and 20 nM GSK-3β. Final concentrations of the components of the coupled enzyme system were 2.5 mM phosphoenolpyruvate, 300 μM NADH, 30 μg/ml pyruvate kinase and 10 μg/ml lactate dehydrogenase.
An assay stock buffer solution was prepared containing all of the reagents listed above with the exception of ATP and the test compound of the present invention. The assay stock buffer solution (175 μl) was incubated in a 96 well plate with 5 μl of the test compound of the present invention at final concentrations spanning 0.002 μM to 30 μM at 30° C. for 10 min. Typically, a 12-point titration was conducted by preparing serial dilutions (from 10 mM compound stocks) with DMSO of the test compounds of the present invention in daughter plates. The reaction was initiated by the addition of 20 μl of ATP (final concentration 20 μM). Rates of reaction were obtained using a Molecular Devices Spectramax plate reader (Sunnyvale, Calif.) over 10 min at 30° C. The Ki values were determined from the rate data as a function of inhibitor concentration.

GSK3α TYR 279 = GSK3α TYR 279 (Homo sapiens (Human), UniProt P49840); assay: GSK-3α p-TYR inhibition assay (western blotting of Jurkat cells); assay type: cell-based; conditions: compound incubated o/n, western blot, read-out: GSK3a pTYR 279: IC50
Experimental: (§1) Compounds are screened for their ability to inhibit the phosphorylation of tyrosine (TYR) residues through the use of western blotting of Jurkat cells dosed with the compounds. The phosphorylation of the specific TYR residues tested are GSK3α TYR 279 and GSK3β TYR 216.
(§2) Jurkat cells are seeded at a density of 2×10^5 cells/well in a 12 well dish in starvation media (RPMI+1% FBS+P/S). Following starvation for 16 hours, the compound is dosed into each well at a final DMSO concentration of 0.3% and cells are incubated o/n at 37° C. 5% CO2. The next day, cells are spun down at 1500 rpm, washed with PBS, and lysed in 100 uL Laemli sample buffer with β-mercaptoethanol.
(§3) 15 microliters (uL) of cell lysates are loaded onto a 10% tris-glycine gel and run at 120 v for 2 hours or until dye front runs off of the gel. The protein is then transferred onto a PVDF membrane at 100 v for 60 min. PBST (PBS containing 0.1% Tween 20, such as 1 ml Tween per 1 L of PBS) is then made up and used for all washes and antibody incubations. The blot is blocked in 5% nonfat milk PBST for one hour.
(§4) The primary antibody (GSK-3α/β pTYR 279/216 at 1:1000 dilution Upstate cat #05-413) is then added in 5%-nonfat milk PBST overnight at 4° C. with gentle rocking. The blot is then washed in PBST for 5 min. This is then repeated 4 times. A secondary anti-mouse-HRP conjugated antibody (1:5000 dilution) is added for 60 min in 5% milk PBST. The blot is then washed in PBST for 5 min. This is also repeated 4 times. 3.0 mL of the developing solution (ECL plus Western Blotting Detection System from Amersham/GE cat # RPN2132) is made and then added. The solution is swirled over the blot for ˜30 sec. The blot is then developed using CL-Xposure clear blue X-ray film. GAPDH expression level is used as a loading control, (GAPDH antibody: santa cruz 25-778) at 1:10000 dilution.
(§5) For determination of GSK-3α and GSK-3β pTYR IC50, the density of the respective bands for each protein at specific compound concentration is compared to a no compound DMSO treated control cell sample present on each exposure.

GSK3β TYR 216 = GSK3β TYR 216 (Homo sapiens (Human), UniProt P49841); assay: GSK3β p-TYR inhibition assay (western blotting of Jurkat cells); assay type: cell-based; conditions: compound incubated o/n, western blot, read-out: GSK3b pTYR 216: IC50
Experimental: as §1, §2, §3, §4, §5

[1] = test system: β-catenin dependent TCF/LEF transcriptional activity; assay: β-catenin stabilization protocol (β-lactamase reporter assay in Jurkat cells); assay type: cell-based; conditions: Homo sapiens, 460/530 ratio, 50% of the maximum effect, read-out: Beta Catenin IC50
From the text: GSK-3 phosphorylation of β-catenin targets it to the proteosome for degradation. Inhibition of GSK-3 results in accumulation of β-catenin in the cytosol of cells which through interaction with the transcription factor TCF/LEF translocates to the nucleus and drives the transcription of Wnt-dependent genes. The assay is designed to determine the level of β-catenin dependent TCF/LEF transcriptional activity in a quantitative manner through the use of a β-lactamase reporter assay in Jurkat cells dosed with a compound.
Jurkat β-catenin cells are starved overnight in assay media (1% FBS, 1× Penstrep, RPMI) in the flask. The next day Jurkat β-catenin cells are seeded in 96 well flat bottom plates at a density of 50,000 cells/well in assay media in a volume of 100 ul. The compound is added to the well at a final DMSO concentration of 0.75% and incubated at 37° C. o/n. The next day, 20 uL of 6× CCF4 dye is added to the wells and incubated at room temperature for 1-2 hours. Plates are read on the Cytofluor 4000 series multiwell plate reader and the 460/530 ratio is determined.

amyloid-β peptides = conditions: mice over-expressing APP, treated over a three-week period; cited from earlier work
[2] = test system: infarct size in rat brains; conditions: after transient MCAO in rats; cited from earlier work

Sequence of GSK3α TYR 279 (P49840 whole entry): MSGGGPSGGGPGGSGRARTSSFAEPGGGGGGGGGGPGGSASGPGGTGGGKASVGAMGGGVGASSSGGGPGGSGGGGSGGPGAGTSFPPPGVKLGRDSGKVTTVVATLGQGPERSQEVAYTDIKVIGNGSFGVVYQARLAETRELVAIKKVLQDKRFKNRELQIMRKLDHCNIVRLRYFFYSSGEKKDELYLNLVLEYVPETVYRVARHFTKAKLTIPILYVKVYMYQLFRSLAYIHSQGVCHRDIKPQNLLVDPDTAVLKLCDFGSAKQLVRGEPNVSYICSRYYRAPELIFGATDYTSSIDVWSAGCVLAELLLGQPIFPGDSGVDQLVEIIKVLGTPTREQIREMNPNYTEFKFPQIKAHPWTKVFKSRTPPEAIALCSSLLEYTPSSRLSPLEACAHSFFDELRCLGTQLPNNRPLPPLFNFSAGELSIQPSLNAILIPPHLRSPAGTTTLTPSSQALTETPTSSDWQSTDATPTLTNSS
Sequence of GSK3β TYR 216 (P49841 whole entry): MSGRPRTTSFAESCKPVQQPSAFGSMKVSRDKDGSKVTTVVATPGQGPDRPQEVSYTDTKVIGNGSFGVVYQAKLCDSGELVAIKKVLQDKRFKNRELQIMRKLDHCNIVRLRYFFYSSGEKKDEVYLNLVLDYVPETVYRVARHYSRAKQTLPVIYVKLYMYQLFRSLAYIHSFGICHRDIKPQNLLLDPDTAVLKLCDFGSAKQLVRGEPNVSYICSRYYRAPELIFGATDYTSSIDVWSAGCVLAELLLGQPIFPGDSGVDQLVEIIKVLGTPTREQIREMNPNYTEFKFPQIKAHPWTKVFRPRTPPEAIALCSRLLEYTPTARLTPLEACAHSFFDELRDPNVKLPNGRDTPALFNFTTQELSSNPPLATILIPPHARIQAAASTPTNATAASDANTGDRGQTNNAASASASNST
Sequence of GSK-3β (AA 1-420) (P49841 whole entry, species assumed, the tested form may be a part): as the sequence (P49841 whole entry) above

Ki (GSK-3β (AA 1-420)) | IC50 (GSK3α TYR 279) | IC50 (GSK3β TYR 216) | IC50 [1] | Molecule | decrease in amyloid-β peptide tissue levels (amyloid-β peptides) | infarct size in rat brains [2]
< 25 nM |  |  |  | Fc1cnc2[nH]nc(Nc3cc(Cl)nc(C4CCCCC4)n3)c2c1 [Compound I-1] |  | 
25 to 500 nM |  |  |  | CN1CCN(c2cc(Nc3n[nH]c4ccc(F)cc34)nc(C3CCCCC3)n2)CC1 [Compound I-2] |  | 
< 25 nM | 0.7 nM | 13 nM | 3700 nM | Cc1nc(C2CCCCC2)nc(Nc2n[nH]c3ncc(F)cc23)c1C [Compound I-3] |  | 
< 25 nM | 1 nM | 20 nM | 210 nM | Cc1nc(Nc2n[nH]c3ncc(F)cc23)cc(C2CCC(F)(F)CC2)n1 [Compound I-4] |  | 
 | 30 nM | 800 nM | > 10000 nM | Cc1nc(C2CCOCC2)nc(Nc2n[nH]c3ncc(F)cc23)c1C [Compound I-5] |  | 
 | 0.3 nM | 10 nM | 600 nM | Cc1cc(Nc2n[nH]c3ncc(F)cc23)nc(C2CCCCCC2)n1 [Compound I-8] |  | 
 | 2 nM | 48 nM | 1400 nM | Cc1cc(Nc2n[nH]c3ncc(F)cc23)nc(C2CCCC2)n1 [Compound I-9] |  | 
 | 0.5 nM | 6 nM | 400 nM | Cc1cc(Nc2n[nH]c3ncc(F)cc23)nc(C2CCCCC2)n1 [Compound I-10] |  | 
< 25 nM |  |  |  | Cc1cc(Nc2n[nH]c3ccc(F)cc23)nc(C2CCCC2)n1 [Compound I-14] |  | 
25 to 500 nM | 30 nM | 200 nM | 4830 nM | Cc1cc(Nc2n[nH]c3ccc(F)cc23)nc(C2CCOCC2)n1 [Compound I-15] |  | 
 | 3 nM | 30 nM | 110 nM | Cc1cc(Nc2n[nH]c3ncc(F)cc23)nc(C2CCOCC2)n1 [Compound I-17] |  | 
 | 1 nM | 300 nM | 2400 nM | Cc1cc(Nc2n[nH]c3ncc(F)cc23)nc([C@H]2CCCC[C@@H]2C)n1 [Compound I-18] |  | 
25 to 500 nM |  |  |  | Cc1cc(Nc2n[nH]c3ncc(F)cc23)nc(C2CC2)n1 [Compound I-20] |  | 
 | 3 nM | 20 nM | 1000 nM | CC(C)(O)c1cc(Nc2n[nH]c3ncc(F)cc23)nc(C2CCCCC2)n1 [Compound I-21] |  | 
 | 2 nM | 25 nM | 1100 nM | Cc1cc(Nc2n[nH]c3ccc(F)cc23)nc(C2CCCCC2)n1 [Compound I-23] |  | 
 |  |  |  | [Li] [lithium] | > 50% | 
 |  |  |  | IGF-1: insulin growth factor-1, a known GSK-3 inhibitor |  | reduced infarct size
